Data set [1] deals with T1, jack bean urease (Canavalia ensiformis, UniProt P07374). The data set is described as follows: biochemical.
Description: The jack bean urease action was determined by measuring the ammonia produced by the indophenol method described by Weatherburn. The reaction mixtures, containing 50 µL of buffer (100 mM urea, 10 mM dibasic potassium phosphate, 1 mM EDTA and 10 mM LiCl, pH 8.2), 20 µL of sample and 20 µL of the jack bean urease (5 U/mL) were added in a 96-well plate and the plate was incubated at 37 °C for 30 min. After incubation, 50 μL of phenol reagent (1%, w/v phenol and 0.005%, w/v sodium nitroprusside) and 50 μL of alkali reagents (0.5%, w/v NaOH and 0.1% NaOCl) were added in each well, and again the plate was incubated at 37 °C for 10 min. After the second incubation, the absorbance was checked at 625 nm, using a microplate reader (OPTIMax, Tunable, Sunnyvale, CA, USA). All reactions were performed in triplicate. The urease inhibition activity was calculated according to the following formula:Inhibition (%) = [(B − S)/B] × 100 where B and S are the optical densities of sample and blank. Thiourea was used as reference.
The nature of data set [2]: Free radical scavenging assay (DPPH). As to conditions: in comparison to the reference drug vitamin C. The procedure:
Radical scavenging activity was determined by adjusting the already reported 2,2-diphenyl-1-picrylhydrazyl (DPPH) assay method. The assay arrangement comprised 100 µL of DPPH (150 µM), 20 µL of increasing concentrations of test compounds and the volume was adjusted to 200 µL in each well with DMSO. At a room temperature, the reaction mixture was incubated for 30 min. Ascorbic acid (Vitamin C) was utilized as a model inhibitor. The assay estimations were done by using a micro plate reader (OPTIMax, Tunable, Sunnyvale, CA, USA) at 517 nm. The response rates were analyzed and the percent inhibition caused by the presence of the tested inhibitor was calculated. Each concentration was analyzed in three independent experiments run thrice.
In general terms: The DPPH test is a chemical assay of radical scavenging.

Data set [3] deals with T1, jack bean urease. Briefly: Kinetic mechanism study of urease inhibition (Lineweaver–Burk plots). The format is biochemical. As to conditions: for Ki′ (ESI dissociation constant): from intercept versus inhibitor concentration; for Inhibition Type: urea as substrate. The procedure:
Kinetic analysis was carried out to determine the mode of inhibition. […] Kinetics were determined by varying the dose of urea in the presence of different doses of compound 3e (0.025, 0.05, 0.01 and 0.02 µM), compound 6a (0.00, 0.0011, 0.0022, and 0.0044 µM), compound 9e (0.00, 0.015, 0.03 and 0.06 µM) and compound 12d (0.0130, 0.026, 0.052, 0.104 and 0.208 µM). In detail the urea doses were varied between 100, 50, 25, 12.5, 6.25 and 3.125 mM mM for urease kinetics studies and the rest of the procedure was same for all kinetic studies as described in the urease inhibition assay protocol. Maximal initial velocities were determined from the initial linear portion of the absorbances up to 10 min after the addition of enzyme at per minute’s intervals. The inhibition type of the enzyme was assayed by Lineweaver–Burk plots of the inverse of velocities (1/V) versus the inverse of substrate concentration 1/[S] mM^−1. The EI dissociation constant Ki was determined by the secondary plot of 1/V versus inhibitor concentration and the ESI dissociation constant Ki′ was calculated from the intercept versus inhibitor concentrations. Urease activity was determined by measuring ammonia production using the indophenol method as reported previously. The results (change in absorbance per min) were recorded at 625 nm using a microplate reader (Optimax Tunable, Sunnyvale, CA, USA).

Setting [4] is: Urease Activity IC50 ± SEM, 100 mM urea, pH 8.2, 37 °C.
Setting [5] is: 100 mM urea, pH 8.2, 37 °C, read-out: Urease Activity IC50 ± SEM.

Several values for one entry are separate records, joined by “and”; a condition that tells them apart may be missing. Equal entries are not always repeated. Entries after “also recorded” stand apart in the source; their conditions may differ. Where two headings read alike, the source gives them in different places.

The IC50 is the concentration that inhibits the measured activity by half. In general, Ki refers to a dissociation constant, usually derived from enzyme kinetics or from competition with a known ligand. Low values mean tighter binding, high ones weaker binding. A word on the melting point: it is the temperature, or range, at which the solid turns liquid.

T1 sequence (P07374 whole entry, looked up): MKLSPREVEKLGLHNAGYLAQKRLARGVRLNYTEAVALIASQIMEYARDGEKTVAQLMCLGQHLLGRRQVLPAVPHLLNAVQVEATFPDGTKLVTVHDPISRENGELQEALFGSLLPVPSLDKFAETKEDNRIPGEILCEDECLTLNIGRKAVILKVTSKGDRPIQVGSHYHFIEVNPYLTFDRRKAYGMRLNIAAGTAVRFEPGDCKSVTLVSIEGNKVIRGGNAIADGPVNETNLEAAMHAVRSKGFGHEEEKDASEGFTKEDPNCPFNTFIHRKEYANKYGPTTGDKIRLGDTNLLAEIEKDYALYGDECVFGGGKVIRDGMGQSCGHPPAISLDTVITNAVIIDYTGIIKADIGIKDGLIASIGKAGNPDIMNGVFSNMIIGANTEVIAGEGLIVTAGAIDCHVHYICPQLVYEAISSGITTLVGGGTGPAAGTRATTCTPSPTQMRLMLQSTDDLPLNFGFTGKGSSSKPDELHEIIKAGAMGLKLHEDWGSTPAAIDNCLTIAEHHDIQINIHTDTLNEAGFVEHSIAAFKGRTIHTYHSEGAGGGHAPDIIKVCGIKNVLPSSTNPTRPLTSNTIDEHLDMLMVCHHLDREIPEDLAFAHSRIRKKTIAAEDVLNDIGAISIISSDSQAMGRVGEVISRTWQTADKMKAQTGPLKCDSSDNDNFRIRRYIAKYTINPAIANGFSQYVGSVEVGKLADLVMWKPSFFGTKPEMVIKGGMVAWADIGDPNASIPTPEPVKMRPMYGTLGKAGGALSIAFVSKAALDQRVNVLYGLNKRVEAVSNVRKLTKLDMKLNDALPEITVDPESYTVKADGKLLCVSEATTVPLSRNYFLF

With `Cc1ccc(S(=O)(=O)NNC(N)=S)cc1` [Compound 12a, 2-Tosylhydrazine-1-carbothioamide], the IC50 against jack bean urease [1] (setting [4]) worked out at 225 ± 6 nM. In addition, the radical scavenging potency entry in data set [2] was “excellent radical scavenging potency”.

Consider `Cc1ccc(S(=O)(=O)Nc2ccc(S(=O)(=O)Nc3ncccn3)cc2)cc1` [Compound 6a, 4-Methyl-N-(4-(N-(pyrimidin-2-yl)sulfamoyl)phenyl)benzenesulfonamide], for which the melting point was 223 to 225 °C. Moreover, on jack bean urease [3], affinity was put at a Ki of 1.1 nM, the “Ki′ (ESI dissociation constant)” value was determined as 1.6 nM and the “Inhibition Type” value is given as “mixed type of mode inhibition”. Further, on jack bean urease [3] (inhibitor dose 0.0011 µM), the Vmax was 0.00769 ΔA/Min. Moreover, the Vmax on jack bean urease [3] (inhibitor dose 0.0022 µM) is 0.00493 ΔA/Min. Further, the Vmax on jack bean urease [3] (inhibitor dose 0.0044 µM) is on record as 0.00351 ΔA/Min. Moreover, the 50% inhibitory concentration (IC50) at jack bean urease [1] (setting [4]) is 2.23 nM and 2.2 nM and 2 nM.

On to `Cc1ccc(S(=O)(=O)NC23CC4CC(CC(C4)C2)C3)cc1[N+](=O)[O-]` [Compound 9f, N-(Adamantan-1-yl)-4-methyl-3-nitrobenzenesulfonamide], for which, at jack bean urease [1] (setting [4]), half-maximal inhibition (IC50) was put at 55.8 ± 1 nM.

`NC(=S)NNS(=O)(=O)c1cccc(Cl)c1Cl` [Compound 12d, 2-((2,3-Dichlorophenyl)sulfonyl)hydrazine-1-carbothioamide]: the melting point fell in the range of 229 to 231 °C. Moreover, on jack bean urease [3], the affinity corresponds to a Ki of 53 nM, the “Ki′ (ESI dissociation constant)” value worked out at 125 nM and the “Inhibition Type” value is given as “mixed type of mode inhibition”. Besides, the Vmax at jack bean urease [3] (inhibitor dose 0.026 µM) is 0.00213 ΔA/Min. For the same molecule, the Vmax on jack bean urease [3] (inhibitor dose 0.052 µM) is reported as 0.00194 ΔA/Min. Besides, the Vmax on jack bean urease [3] (inhibitor dose 0.104 µM) is given as 0.0016 ΔA/Min. Moreover, the Vmax at jack bean urease [3] (inhibitor dose 0.208 µM) is given as 0.001 ΔA/Min. Moreover, at jack bean urease [1] (setting [4]), the IC50 was 26.6 nM and 26 nM. The radical scavenging potency result in data set [2] was “excellent radical scavenging potency”.

Take `Cc1cc(C)cc(S(=O)(=O)NNC(N)=S)c1` [Compound 12e, 2-((3,5-Dimethylphenyl)sulfonyl)hydrazine-1-carbothioamide]: the melting point was in the range of 160 to 162 °C. On jack bean urease [1] (setting [4]), this molecule returned an IC50 of 96 ± 4 nM. The radical scavenging potency result in data set [2] was “excellent radical scavenging potency”.

The molecule `O=S(=O)(NC12CC3CC(CC(C3)C1)C2)c1ccc(-c2ccccc2)cc1` [Compound 9c, N-(Adamantan-1-yl)-[1,1′-biphenyl]-4-sulfonamide] displayed a concentration for half-maximal inhibition (IC50) on jack bean urease [1] (setting [4]) of 17.8 nM.

In the case of `NC(N)=S` [Thiourea, reference compound], the concentration for half-maximal inhibition (IC50) on jack bean urease [1] (setting [5]) came out at 17810 ± 96 nM.

With `Cc1ccc(S(=O)(=O)NC23CC4CC(CC(C4)C2)C3)cc1` [Compound 9a, N-(Adamantan-1-yl)-4-methylbenzenesulfonamide], the IC50 against jack bean urease [1] (setting [4]) was found to be 289 ± 15 nM.

Take `NC(=S)NNS(=O)(=O)c1ccc(-c2ccccc2)cc1` [Compound 12c, 2-([1,1′-Biphenyl]-4-ylsulfonyl)hydrazine-1-carbothioamide]: the half-maximal inhibitory concentration (IC50) against jack bean urease [1] (setting [4]) turned out to be 186 ± 7 nM.

As for “2-((4-Methyl-3-nitrophenyl)sulfonyl)hydrazine-1-carbothioamide [Compound 6f]”, the IC50 at jack bean urease [1] (setting [5]) came out at 127 ± 7.6 nM.

In turn, `NC(=S)NNS(=O)(=O)c1ccc([N+](=O)[O-])cc1` [Compound 12b, 2-((4-Nitrophenyl)sulfonyl)hydrazine-1-carbothioamide] came in with a melting point of 160 to 162 °C. This molecule also came in with a concentration for half-maximal inhibition (IC50) against jack bean urease [1] (setting [4]) of 141 ± 4 nM. Also, in data set [2], the radical scavenging potency result is listed as “excellent radical scavenging potency”.

On to `O=S(=O)(Nc1ccc(S(=O)(=O)Nc2ncccn2)cc1)c1ccc(-c2ccccc2)cc1` [Compound 6c, N-(4-(N-(pyrimidin-2-yl)sulfamoyl)phenyl)-[1,1′-biphenyl]-4-sulfonamide], for which the melting point was in the range of 168 to 170 °C. The molecule also registered a half-maximal inhibitory concentration (IC50) against jack bean urease [1] (setting [4]) of 141 ± 7 nM.

Take `O=S(=O)(NC12CC3CC(CC(C3)C1)C2)c1cccc(Cl)c1Cl` [Compound 9d, N-(Adamantan-1-yl)-2,3-dichlorobenzenesulfonamide]: the melting point fell in the range of 221 to 230 °C. For the same molecule, 53.3 ± 1 nM corresponded to half-maximal inhibition against jack bean urease [1] (setting [4]) (IC50).

Consider `O=[N+]([O-])c1ccccc1S(=O)(=O)Nc1ccc(S(=O)(=O)Nc2ncccn2)cc1` [Compound 6b, 2-Nitro-N-(4-(N-(pyrimidin-2-yl)sulfamoyl)phenyl)benzenesulfonamide], for which the IC50 at jack bean urease [1] (read-out: Urease Activity IC50 ± SEM, 100 mM urea, pH 8.2, 37 °C) was determined as 233 ± 11 nM.

As for “2-((3,5-Dimethylphenyl)sulfonyl)hydrazine-1-carbothioamide [Compound 6e]”, the IC50 at jack bean urease [1] (setting [5]) is 174 ± 9 nM.

Consider `Cc1cc(C)cc(S(=O)(=O)NC23CC4CC(CC(C4)C2)C3)c1` [Compound 9e, N-(Adamantan-1-yl)-3,5-dimethylbenzenesulfonamide], for which the melting point was 162 to 164 °C. Further, on jack bean urease [3], the Ki was 22.5 nM and the “Inhibition Type” value is reported as “non-competitive mode of inhibition; also recorded: non-competitive mechanism; also recorded: Noncompetitive”. Besides, the Vmax on jack bean urease [3] (inhibitor dose 0.013 µM) was 0.00299 ΔA/Min. In addition, the Vmax at jack bean urease [3] (inhibitor dose 0.015 µM) is recorded as 0.00127 ΔA/Min. Also, the Vmax on jack bean urease [3] (inhibitor dose 0.03 µM) is given as 0.00108 ΔA/Min. Besides, the Vmax at jack bean urease [3] (inhibitor dose 0.06 µM) is 0.00085 ΔA/Min. Moreover, the IC50 on jack bean urease [1] (setting [4]) is 25 nM.

The molecule `Cc1ccc(S(=O)(=O)NNC(N)=S)cc1[N+](=O)[O-]` [Compound 12f, 2-((4-Methyl-3-nitrophenyl)sulfonyl)hydrazine-1-carbothioamide] yielded a melting point of 160 to 163 °C. The IC50 against jack bean urease [1] (setting [4]) was found to be 67 ± 2.9 nM. The radical scavenging potency entry in data set [2] is listed as “excellent radical scavenging potency”.

As to “2-((2,3-Dichlorophenyl)sulfonyl)hydrazine-1-carbothioamide [Compound 6d]”, at jack bean urease [1] (setting [5]), the half-maximal inhibitory concentration (IC50) is 95 ± 4 nM.

Regarding `O=[N+]([O-])c1ccc(S(=O)(=O)NC23CC4CC(CC(C4)C2)C3)cc1` [Compound 9b, N-(Adamantan-1-yl)-4-nitrobenzenesulfonamide], the 50% inhibitory concentration (IC50) against jack bean urease [1] (setting [4]) is 27.6 ± 1 nM.

For the origin of these results see PMC6152116, “Sulfonamide-Linked Ciprofloxacin, Sulfadiazine and Amantadine Derivatives as a Novel Class of Inhibitors of Jack Bean Urease; Synthesis, Kinetic Mechanism and Molecular Docking” (Molecules : A Journal of Synthetic Chemistry and Natural …, 2017).
